These results are taken from patent US20040081973A1, “Cloning and characterization of a novel BK channel isoform highly expressed in glioma cells” (priority 2002, published 2004).

The subject of one test is Kca current. The settings on record: CEFs transformed with Rous sarcoma virus (Repp et al., 1993); cited from earlier work.
The target in another test is T1, gBK (Homo sapiens, UniProt Q12791).
T1 construct: Outside-out patches were isolated from STTG-1 cells; endogenous in cells
Kind of test: Tetrandrine inhibition of gBK currents in outside-out patches. It counts as cell-based. The conditions noted are these: 3 uM tetrandrine, voltage steps to +120 mV. The method, then:
Outside-out patches were isolated from STTG-1 cells and the voltage dependence of gBK currents were isolated with different [Ca^2+]i. Currents were integrated over the period of a voltage step and the average conductance was calculated from these areas (Ransom and Sontheimer, 2002). For each patch, 5-20 families of current traces over a range of voltages were obtained and the average conductance values at each membrane potential were determined. The normalized conductance was plotted as a function of membrane potential (activation curves) and fit to the Boltzman equation to obtain half-maximal voltages, V0.5. A total of 45 outside-out patches and their corresponding activation curves with [Ca^2+]i of 0 (10 mM EGTA added), 1.5×10−7 M and 2.1×10−6 M were determined. […] (FIGS. 11A and 11B). For comparison, the same set of experiments was performed on the hbr5 BK channel (Ransom and Sontheimer, 2002). V0.5 for hbr5 BK channel at [Ca^2+]i of 0 (10 mM EGTA added), 1.5×10−7 M and 2.1×10−6 M were +118 mV, +52 mV and −23 mV (FIGS. 12A and 12B).
If gBK channels are associated with β-subunits, then they should be sensitive to tetrandrine, a plant alkaloid. 3 uM tetrandrine has been reported to inhibit β-subunit-containing channels over 50%.

The next test addresses T2, hbr5 (Homo sapiens, UniProt Q12791).
T2 construct: expressed in transfected cells; host or cells: HEK cells
Kind of test: Tetrandrine inhibition of hbr5 currents in outside-out patches from HEK cells transfected with hbr5. The settings on record: HEK293, 3 uM tetrandrine, voltage steps to +120 mV. It counts as cell-based.

For another test, the system named is Kca. The settings on record: EGF and PDGF stimulation (Huang and Rane, 1994); cited from earlier work.
For test [1], the target named is glioma BK (gBK) channel, novel splice variant of hSlo alpha-subunit (human) (UniProt Q12791). Description: cell-based or functional assay.
Chain of glioma BK (gBK) channel, novel splice variant of hSlo alpha-subunit (human) (Q12791 other isoform, or with tags, fused parts or gaps mutant): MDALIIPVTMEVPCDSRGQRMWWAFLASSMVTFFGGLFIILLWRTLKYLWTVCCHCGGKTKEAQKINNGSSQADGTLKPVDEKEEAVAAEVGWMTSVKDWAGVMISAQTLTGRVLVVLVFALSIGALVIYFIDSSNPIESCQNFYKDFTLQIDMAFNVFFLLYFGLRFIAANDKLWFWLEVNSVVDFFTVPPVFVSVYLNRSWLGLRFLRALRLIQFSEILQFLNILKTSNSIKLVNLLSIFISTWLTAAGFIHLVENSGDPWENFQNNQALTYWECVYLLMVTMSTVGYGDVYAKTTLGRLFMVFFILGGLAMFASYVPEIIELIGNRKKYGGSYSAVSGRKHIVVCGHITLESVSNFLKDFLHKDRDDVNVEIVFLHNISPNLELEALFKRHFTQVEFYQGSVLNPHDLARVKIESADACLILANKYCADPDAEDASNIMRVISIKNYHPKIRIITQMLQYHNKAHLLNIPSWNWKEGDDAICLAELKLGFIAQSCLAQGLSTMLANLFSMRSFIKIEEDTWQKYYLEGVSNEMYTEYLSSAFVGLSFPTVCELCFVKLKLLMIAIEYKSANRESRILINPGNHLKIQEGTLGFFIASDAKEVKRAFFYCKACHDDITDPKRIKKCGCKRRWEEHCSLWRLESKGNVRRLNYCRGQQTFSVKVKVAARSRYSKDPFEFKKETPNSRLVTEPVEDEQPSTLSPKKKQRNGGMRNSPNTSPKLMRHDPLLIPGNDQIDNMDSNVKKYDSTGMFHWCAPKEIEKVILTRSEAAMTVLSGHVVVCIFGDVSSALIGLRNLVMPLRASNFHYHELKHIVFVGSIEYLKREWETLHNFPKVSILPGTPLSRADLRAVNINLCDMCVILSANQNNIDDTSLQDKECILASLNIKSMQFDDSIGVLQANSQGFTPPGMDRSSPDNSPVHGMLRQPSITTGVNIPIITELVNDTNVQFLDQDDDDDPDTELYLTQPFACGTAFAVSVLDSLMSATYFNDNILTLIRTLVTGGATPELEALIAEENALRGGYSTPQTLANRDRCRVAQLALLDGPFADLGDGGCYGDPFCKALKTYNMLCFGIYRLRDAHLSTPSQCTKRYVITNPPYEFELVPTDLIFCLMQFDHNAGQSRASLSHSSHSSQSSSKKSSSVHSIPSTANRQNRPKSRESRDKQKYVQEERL

T1 sequence (Q12791 1-1239 isoform Q12791-7): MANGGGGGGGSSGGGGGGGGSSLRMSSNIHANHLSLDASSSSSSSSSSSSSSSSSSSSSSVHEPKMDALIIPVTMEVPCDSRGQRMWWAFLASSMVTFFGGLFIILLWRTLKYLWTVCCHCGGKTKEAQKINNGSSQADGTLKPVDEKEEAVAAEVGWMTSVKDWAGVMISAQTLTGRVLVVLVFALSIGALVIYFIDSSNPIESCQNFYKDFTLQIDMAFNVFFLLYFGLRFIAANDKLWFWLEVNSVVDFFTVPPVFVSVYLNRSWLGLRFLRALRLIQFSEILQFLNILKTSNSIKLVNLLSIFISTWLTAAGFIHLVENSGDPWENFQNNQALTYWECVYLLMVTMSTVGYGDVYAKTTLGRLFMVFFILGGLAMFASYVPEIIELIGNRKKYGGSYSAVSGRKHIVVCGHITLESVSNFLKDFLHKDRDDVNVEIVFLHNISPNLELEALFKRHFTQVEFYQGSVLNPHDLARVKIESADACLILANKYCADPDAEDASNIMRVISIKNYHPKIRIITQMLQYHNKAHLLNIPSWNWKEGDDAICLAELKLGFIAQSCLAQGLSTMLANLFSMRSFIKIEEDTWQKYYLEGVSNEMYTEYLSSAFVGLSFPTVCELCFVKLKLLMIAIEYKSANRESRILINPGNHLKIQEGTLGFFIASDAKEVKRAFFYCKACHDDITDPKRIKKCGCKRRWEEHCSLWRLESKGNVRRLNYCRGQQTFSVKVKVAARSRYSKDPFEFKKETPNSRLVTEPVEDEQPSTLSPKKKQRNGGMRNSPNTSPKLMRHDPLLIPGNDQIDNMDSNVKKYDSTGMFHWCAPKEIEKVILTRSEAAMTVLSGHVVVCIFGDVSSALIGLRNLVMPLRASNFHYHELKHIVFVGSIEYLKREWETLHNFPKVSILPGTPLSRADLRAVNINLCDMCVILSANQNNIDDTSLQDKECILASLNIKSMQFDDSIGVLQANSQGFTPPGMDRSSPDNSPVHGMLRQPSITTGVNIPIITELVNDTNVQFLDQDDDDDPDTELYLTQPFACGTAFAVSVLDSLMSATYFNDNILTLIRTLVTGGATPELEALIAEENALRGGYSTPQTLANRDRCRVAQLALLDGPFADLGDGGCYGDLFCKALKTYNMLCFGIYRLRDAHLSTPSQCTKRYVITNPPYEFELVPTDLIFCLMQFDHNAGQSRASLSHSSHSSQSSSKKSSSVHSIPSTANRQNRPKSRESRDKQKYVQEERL
T2 sequence (Q12791 1-1207 isoform Q12791-4): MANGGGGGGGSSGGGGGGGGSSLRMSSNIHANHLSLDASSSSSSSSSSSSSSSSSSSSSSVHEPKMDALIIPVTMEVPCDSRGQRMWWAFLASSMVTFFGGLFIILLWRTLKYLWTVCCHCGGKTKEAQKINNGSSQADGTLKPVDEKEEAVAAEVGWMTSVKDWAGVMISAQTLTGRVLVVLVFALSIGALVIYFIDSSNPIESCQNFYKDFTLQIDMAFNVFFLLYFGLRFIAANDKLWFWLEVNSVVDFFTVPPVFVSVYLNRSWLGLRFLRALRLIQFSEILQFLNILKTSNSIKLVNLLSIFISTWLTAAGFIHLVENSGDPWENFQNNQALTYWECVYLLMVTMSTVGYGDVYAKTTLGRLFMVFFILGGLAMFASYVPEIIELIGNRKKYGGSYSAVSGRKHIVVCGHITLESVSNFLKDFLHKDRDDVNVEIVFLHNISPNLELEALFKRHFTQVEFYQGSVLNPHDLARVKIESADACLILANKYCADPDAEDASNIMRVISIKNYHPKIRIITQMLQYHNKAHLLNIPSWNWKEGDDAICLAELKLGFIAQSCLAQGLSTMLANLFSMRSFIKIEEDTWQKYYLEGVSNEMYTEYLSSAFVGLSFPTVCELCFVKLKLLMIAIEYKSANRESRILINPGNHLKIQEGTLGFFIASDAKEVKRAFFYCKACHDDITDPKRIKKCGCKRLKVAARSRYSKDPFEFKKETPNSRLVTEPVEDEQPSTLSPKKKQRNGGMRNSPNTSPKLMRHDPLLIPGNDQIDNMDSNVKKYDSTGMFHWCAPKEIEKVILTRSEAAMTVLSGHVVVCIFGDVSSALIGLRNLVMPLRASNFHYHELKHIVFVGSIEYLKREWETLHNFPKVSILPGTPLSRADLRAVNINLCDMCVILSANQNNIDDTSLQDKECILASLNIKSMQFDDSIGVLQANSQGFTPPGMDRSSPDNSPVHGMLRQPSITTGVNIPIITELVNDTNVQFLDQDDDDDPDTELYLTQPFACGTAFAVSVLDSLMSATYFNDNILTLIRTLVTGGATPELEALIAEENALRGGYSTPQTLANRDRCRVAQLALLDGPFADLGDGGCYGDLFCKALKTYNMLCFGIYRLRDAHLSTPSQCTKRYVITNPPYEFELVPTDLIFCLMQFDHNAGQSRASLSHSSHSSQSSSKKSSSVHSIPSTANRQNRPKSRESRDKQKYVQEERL

In the case of `CC[N+](CC)(CC)CC` [TEA], the IC50 (usually the concentration that inhibits the measured activity by half) with Kca current is 1800 µM. As for `COc1ccc2cc1Oc1ccc(cc1)C[C@H]1c3cc(c(OC)cc3CCN1C)Oc1c(OC)c(OC)cc3c1[C@H](C2)N(C)CC3` [tetrandrine], the results for the inhibition at 3 µM on gBK and against hbr5 were 63% and 14%, respectively.

For the molecule charybdotoxin [ChTX], the IC50 in the test on Kca current is 0.019 µM. For the same molecule, the “Effect on mitogenic stimulation” value with Kca is recorded as “inhibited the stimulatory effect of the mitogen”. In test [1], “iberiotoxin (IbTX) (from UniProt P24663 1-37) (peptide)” showed an inhibition of total outward currents in gBK injected oocytes by 100 nM IbTX greater than 60%.
